# Measured values: patent USRE50082E1, “(5,6-dihydro)pyrimido[4,5-e]indolizines” (NETHERLANDS TRANSLATIONAL RESEARCH CENTER B.V., priority 2014, dated 2024)
# Tested on: MOLT-4 cancer cell line
# Experiment: Cell proliferation assay, MOLT-4 cancer cell line (ATPlite);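 further: luminescence read-out, percent growth versus compound-free DMSO wells as maximum growth, start-of-incubation signal separating growth from cell death, IC50 from logistic curve fit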
# Type: cell-based
# Details: Homo sapiens, MOLT-4; 72 hours incubation, ATPlite 1Step; read-out: IC50 MOLT-4 cell proliferation
row,SMILES,IC50 [nM]
1,"CCc1cccc(CC)c1NC(=O)c1ccn2c1CCc1cnc(Nc3ccc(N4CCN(C)CC4)cc3C)nc1-2 [Example 67, N-(2,6-diethylphenyl)-2-[2-methyl-4-(4-methylpiperazin-1-yl)anilino]-5,6-dihydropyrimido[4,5-e]indolizine-7-carboxamide]",< 50
2,"Cc1cccc(C)c1NC(=O)c1ccn2c1CCc1cnc(Nc3ccc(N4CCOCC4)nc3C)nc1-2 [Example 68, N-(2,6-dimethylphenyl)-2-[(2-methyl-6-morpholino-3-pyridyl)amino]-5,6-dihydropyrimido[4,5-e]indolizine-7-carboxamide]",< 50
3,"Cc1cccc(Br)c1NC(=O)c1ccn2c1CCc1cnc(Nc3ccc(N4CCOCC4)nc3C)nc1-2 [Example 70, N-(2-bromo-6-methyl-phenyl)-2-[(2-methyl-6-morpholino-3-pyridyl)amino]-5,6-dihydropyrimido[4,5-e]indolizine-7-carboxamide]",< 50
4,"CCc1cccc(CC)c1NC(=O)c1ccn2c1ccc1cnc(Nc3ccc(N4CCN(C)CC4)cc3OC)nc12 [Example 71, N-(2,6-diethylphenyl)-2-[2-methoxy-4-(4-methylpiperazin-1-yl)anilino]pyrimido[4,5-e]indolizine-7-carboxamide]",< 50
5,"CCc1cccc(C)c1NC(=O)c1ccn2c1CCc1cnc(Nc3ccc(N4CCN(C)CC4)cc3OC)nc1-2 [Example 72, N-(2-ethyl-6-methyl-phenyl)-2-[2-methoxy-4-(4-methylpiperazin-1-yl)anilino]-5,6-dihydropyrimido[4,5-e]indolizine-7-carboxamide]",< 50
6,"COc1cc(N2CCN(C)CC2)ccc1Nc1ncc2c(n1)-n1ccc(C(=O)Nc3c(C)cccc3Br)c1CC2 [Example 73, N-(2-bromo-6-methyl-phenyl)-2-[2-methoxy-4-(4-methylpiperazin-1-yl)anilino]-5,6-dihydropyrimido[4,5-e]indolizine-7-carboxamide]",< 50
7,"COc1cc(N2CCNCC2)ccc1Nc1ncc2c(n1)-n1ccc(C(=O)Nc3c(C)cccc3Cl)c1CC2 [Example 75, N-(2-chloro-6-methyl-phenyl)-2-(2-methoxy-4-piperazin-1-yl-anilino)-5,6-dihydropyrimido[4,5-e]indolizine-7-carboxamide]",< 50
8,"CCc1cccc(CC)c1NC(=O)c1ccn2c1CCc1cnc(Nc3ccc(N4CCNCC4)cc3OC)nc1-2 [Example 76, N-(2,6-diethylphenyl)-2-(2-methoxy-4-piperazin-1-yl-anilino)-5,6-dihydropyrimido[4,5-e]indolizine-7-carboxamide]",< 50
9,"CCc1cccc(CC)c1NC(=O)c1ccn2c1ccc1cnc(Nc3ccc(N4CCNCC4)cc3OC)nc12 [Example 77, N-(2,6-diethylphenyl)-2-(2-methoxy-4-piperazin-1-yl-anilino)pyrimido[4,5-e]indolizine-7-carboxamide]",50 to 150
10,"Cc1cc(N2CCNCC2)ccc1Nc1ncc2c(n1)-n1ccc(C(=O)Nc3c(C)cccc3Cl)c1CC2 [Example 78, N-(2-chloro-6-methyl-phenyl)-2-(2-methyl-4-piperazin-1-yl-anilino)-5,6-dihydropyrimido[4,5-e]indolizine-7-carboxamide]",< 50
11,"Cc1cc(N2CCNCC2)ccc1Nc1ncc2c(n1)-n1ccc(C(=O)Nc3c(Cl)cccc3Cl)c1CC2 [Example 79, N-(2,6-dichlorophenyl)-2-(2-methyl-4-piperazin-1-yl-anilino)-5,6-dihydropyrimido[4,5-e]indolizine-7-carboxamide]",< 50
12,"CCc1cccc(CC)c1NC(=O)c1ccn2c1CCc1cnc(Nc3ccc(N4CCNCC4)cc3C)nc1-2 [Example 80, N-(2,6-diethylphenyl)-2-(2-methyl-4-piperazin-1-yl-anilino)-5,6-dihydropyrimido[4,5-e]indolizine-7-carboxamide]",< 50
13,"Cc1cc(N2CCNCC2)ccc1Nc1ncc2c(n1)-n1ccc(C(=O)Nc3c(C)cccc3Br)c1CC2 [Example 81, N-(2-bromo-6-methyl-phenyl)-2-(2-methyl-4-piperazin-1-yl-anilino)-5,6-dihydropyrimido[4,5-e]indolizine-7-carboxamide]",< 50
14,"CCc1cccc(C)c1NC(=O)c1ccn2c1CCc1cnc(Nc3ccc(N4CCNCC4)cc3C)nc1-2 [Example 82, N-(2-ethyl-6-methyl-phenyl)-2-(2-methyl-4-piperazin-1-yl-anilino)-5,6-dihydropyrimido[4,5-e]indolizine-7-carboxamide]",< 50
15,"CCc1cccc(CC)c1NC(=O)c1ccn2c1CCc1cnc(Nc3ccc(N4CCOCC4)cc3C)nc1-2 [Example 83, N-(2,6-diethylphenyl)-2-(2-methyl-4-morpholino-anilino)-5,6-dihydropyrimido[4,5-e]indolizine-7-carboxamide]",< 50
16,"COc1cc(OC2CCN(C)C2)ccc1Nc1ncc2c(n1)-n1ccc(C(=O)Nc3c(C)cccc3C)c1CC2 (stereo not drawn) [Example 84, N-(2,6-dimethylphenyl)-2-[2-methoxy-4-(1-methylpyrrolidin-3-yl)oxy-anilino]-5,6-dihydropyrimido[4,5-e]indolizine-7-carboxamide]",< 50
17,"Cc1cccc(Cl)c1NC(=O)c1ccn2c1CCc1cnc(Nc3ccc(N4CCN(C)CC4)cc3OC(F)F)nc1-2 [Example 86, N-(2-chloro-6-methyl-phenyl)-2-[2-(difluoromethoxy)-4-(4-methylpiperazin-1-yl)anilino]-5,6-dihydropyrimido[4,5-e]indolizine-7-carboxamide]",< 50
18,"CCc1nn(CCOC)c(CC)c1NC(=O)c1ccn2c1CCc1cnc(Nc3ccc(C(=O)N(C)CCCN(C)C)cc3OC)nc1-2 [Example 88, N-[3,5-diethyl-1-(2-methoxyethyl)pyrazol-4-yl]-2-[4-[3-(dimethylamino)propyl-methyl-carbamoyl]-2-methoxy-anilino]-5,6-dihydropyrimido[4,5-e]indolizine-7-carboxamide]",50 to 150
19,"COCCn1nc(C)c(NC(=O)c2ccn3c2CCc2cnc(Nc4ccc(OC5CNC5)cc4OC)nc2-3)c1C [Example 91, 2-[4-(Azetidin-3-yloxy)-2-methoxy-anilino]-N-[1-(2-methoxyethyl)-3,5-dimethyl-pyrazol-4-yl]-5,6-dihydropyrimido[4,5-e]indolizine-7-carboxamide]",50 to 150
20,"CCc1n[nH]c(CC)c1NC(=O)c1ccn2c1CCc1cnc(Nc3ccc(OC4CNC4)cc3OC)nc1-2 [Example 92, 2-[4-(Azetidin-3-yloxy)-2-methoxy-anilino]-N-(3,5-diethyl-pyrazol-4-yl)-5,6-dihydropyrimido[4,5-e]indolizine-7-carboxamide]",50 to 150
21,"CCc1nn(CCOC)c(CC)c1NC(=O)c1ccn2c1CCc1cnc(Nc3ccc(OC4CNC4)cc3OC)nc1-2 [Example 93, 2-[4-(Azetidin-3-yloxy)-2-methoxy-anilino]-N-[3,5-diethyl-1-(2-methoxyethyl)pyrazol-4-yl]-5,6-dihydropyrimido[4,5-e]indolizine-7-carboxamide]",< 50
22,"COCCn1nc(C)c(NC(=O)c2ccn3c2CCc2cnc(Nc4ccc(-c5c(C)nn(C)c5C)cc4OC)nc2-3)c1C [Example 94, N-[1-(2-methoxyethyl)-3,5-dimethyl-pyrazol-4-yl]-2-[2-methoxy-4-(1,3,5-trimethylpyrazol-4-yl)anilino]-5,6-dihydropyrimido[4,5-e]indolizine-7-carboxamide]",< 50
23,"COCCn1nc(C)c(NC(=O)c2ccn3c2ccc2cnc(Nc4ccc(N5CCNCC5)cc4OC)nc23)c1C [Example 96, N-[1-(2-methoxyethyl)-3,5-dimethyl-pyrazol-4-yl]-2-(2-methoxy-4-piperazin-1-yl-anilino)pyrimido[4,5-e]indolizine-7-carboxamide]",< 50
24,"CCc1n[nH]c(CC)c1NC(=O)c1ccn2c1ccc1cnc(Nc3ccc(N4CCNCC4)cc3OC)nc12 [Example 97, N-(3,5-diethyl-1H-pyrazol-4-yl)-2-(2-methoxy-4-piperazin-1-yl-anilino)pyrimido[4,5-e]indolizine-7-carboxamide]",< 50
25,"COc1cc(N2CCNCC2)ccc1Nc1ncc2c(n1)-n1ccc(C(=O)Nc3c(C)nn(CC(C)(C)O)c3C)c1CC2 [Example 98, N-[1-(2-hydroxy-2-methyl-propyl)-3,5-dimethyl-pyrazol-4-yl]-2-(2-methoxy-4-piperazin-1-yl-anilino)-5,6-dihydropyrimido[4,5-e]indolizine-7-carboxamide]",50 to 150
26,"[2H]C([2H])([2H])Oc1cc(N2CCN(C)CC2)ccc1Nc1ncc2c(n1)-n1ccc(C(=O)Nc3c(CC)cccc3CC)c1CC2 [Example 99, N-(2,6-diethylphenyl)-2-[4-(4-methylpiperazin-1-yl)-2-(trideuteriomethoxy)anilino]-5,6-dihydropyrimido[4,5-e]indolizine-7-carboxamide]",< 50
27,"[2H]C([2H])([2H])Oc1cc(N2CCN(C)CC2)ccc1Nc1ncc2c(n1)-n1ccc(C(=O)Nc3c(CC)nn(CCOC)c3CC)c1CC2 [Example 100, N-[3,5-diethyl-1-(2-methoxyethyl)pyrazol-4-yl]-2-[4-(4-methylpiperazin-1-yl)-2-(trideuteriomethoxy)anilino]-5,6-dihydropyrimido[4,5-e]indolizine-7-carboxamide]",< 50
28,"CCc1cccc(CC)c1NC(=O)c1ccn2c1CCc1cnc(Nc3cc(Cl)c(N4CCN(C)CC4)cc3OC)nc1-2 [Example 102, 2-[5-Chloro-2-methoxy-4-(4-methylpiperazin-1-yl)anilino]-N-(2,6-diethylphenyl)-5,6-dihydropyrimido[4,5-e]indolizine-7-carboxamide]",50 to 150
29,"COc1cc(C(=O)NC2CCOCC2)ccc1Nc1ncc2c(n1)-n1ccc(C(=O)Nc3c(C)cccc3C)c1CC2 [Example 103, N-(2,6-dimethylphenyl)-2-[2-methoxy-4-(tetrahydropyran-4-ylcarbamoyl)anilino]-5,6-dihydropyrimido[4,5-e]indolizine-7-carboxamide]",< 50
30,"COc1cc(C(=O)NC2CNC2)ccc1Nc1ncc2c(n1)-n1ccc(C(=O)Nc3c(C)cccc3C)c1CC2 [Example 104, 2-[4-(Azetidin-3-ylcarbamoyl)-2-methoxy-anilino]-N-(2,6-dimethylphenyl)-5,6-dihydropyrimido[4,5-e]indolizine-7-carboxamide]",50 to 150
